The text below walks through data of PubChem BioAssay AID1745844 (Carcinogenic Potency Database (CPDB), 2022).

One may read the TD50 as the dose at which the toxic effect under study appears in half of the subjects.

Activity calls are given as the source filed them. The rule behind the calls is not given here.

The test system of this data set is rodent lifetime carcinogenesis bioassay, tumor incidence TD50. Description: chronic cancer bioassays in animals – CPDB, compiled studies (AID 1745844).

In the case of `CCCCCN(N=O)C(N)=O`, the TD50 (rat, strain Donryu, females, in drinking water, site: all sites, lesion: myelocytic leukemia, dosed 65 weeks, study length 65 weeks) was 19.9 mg/kg/day; the TD50 (rat, strain Donryu, females, in drinking water, site: any site (literature study), lesion: several types, types named in the paper, dosed 65 weeks, study length 65 weeks) turned out to be 1.93 mg/kg/day; the TD50 (rat, strain Donryu, females, in drinking water, site: digestive tract, lesion: several types, types named in the paper, dosed 65 weeks, study length 65 weeks) is 1.15 mg/kg/day; the TD50 (rat, strain Donryu, females, in drinking water, site: esophagus, lesion: one or several types, types not named, dosed 65 weeks, study length 65 weeks) was found to be 0.967 mg/kg/day; the TD50 (rat, strain Donryu, females, in drinking water, site: forestomach, lesion: one or several types, types not named, dosed 65 weeks, study length 65 weeks) was found to be 1.35 mg/kg/day; the TD50 (rat, strain Donryu, females, in drinking water, site: liver, lesion: hepatocellular adenoma, dosed 65 weeks, study length 65 weeks) is 13.3 mg/kg/day. Also, the TD50 is 11.9 mg/kg/day (rat, strain Donryu, females, in drinking water, site: mammary gland, lesion: several types, types named in the paper, dosed 65 weeks, study length 65 weeks); 9.17 mg/kg/day (rat, strain Donryu, males, in drinking water, site: all sites, lesion: myelocytic leukemia, dosed 65 weeks, study length 65 weeks); 0.541 mg/kg/day (rat, strain Donryu, males, in drinking water, site: any site (literature study), lesion: several types, types named in the paper, dosed 65 weeks, study length 65 weeks); 0.532 mg/kg/day (rat, strain Donryu, males, in drinking water, site: digestive tract, lesion: several types, types named in the paper, dosed 65 weeks, study length 65 weeks); 1.44 mg/kg/day (rat, strain Donryu, males, in drinking water, site: esophagus, lesion: one or several types, types not named, dosed 65 weeks, study length 65 weeks); 0.532 mg/kg/day (rat, strain Donryu, males, in drinking water, site: forestomach, lesion: one or several types, types not named, dosed 65 weeks, study length 65 weeks). Also, the TD50 runs as follows: (rat, strain Fischer 344, females, by gavage, site: forestomach, lesion: one or several types, types not named, dosed 50 weeks, study length 104 weeks) 0.478 mg/kg/day; (rat, strain Fischer 344, females, by gavage, site: liver, lesion: one or several types, types not named, dosed 50 weeks, study length 104 weeks) 4.7 mg/kg/day; (rat, strain Fischer 344, females, by gavage, site: lung, lesion: several types, types named in the paper, dosed 50 weeks, study length 104 weeks) 1.09 mg/kg/day; (rat, strain Fischer 344, females, by gavage, site: mammary gland, lesion: adenocarcinoma, dosed 50 weeks, study length 104 weeks) 2.98 mg/kg/day; (rat, strain Fischer 344, females, by gavage, site: uterus, lesion: several types, types named in the paper, dosed 50 weeks, study length 104 weeks) 0.934 mg/kg/day; (rat, strain Fischer 344, males, by gavage, site: all sites, lesion: mesothelioma, dosed 50 weeks, study length 104 weeks) 0.865 mg/kg/day. Moreover, the TD50 (rat, strain Fischer 344, males, by gavage, site: lung, lesion: several types, types named in the paper, dosed 50 weeks, study length 104 weeks) was 0.546 mg/kg/day. Also, the carcinogen call (rat, strain Fischer 344, males, by gavage, site: forestomach, lesion: one or several types, types not named, dosed 50 weeks, study length 104 weeks) is “positive”.
On to `CCN(CC)C(=S)[S-].CCN(CC)C(=S)[S-].[Cd+2]`, for which the TD50 was 47.5 mg/kg/day (inactive) (mouse, strain B6AKF1, females, oral dosing, site: any site (literature study), lesion: several types, types named in the paper, dosed 76 weeks, study length 76 weeks); 18 mg/kg/day (inactive) (mouse, strain B6C3F1, females, oral dosing, site: any site (literature study), lesion: several types, types named in the paper, dosed 76 weeks, study length 76 weeks); 57.4 mg/kg/day (inactive) (mouse, strain B6C3F1, females, oral dosing, site: lung, lesion: adenoma, dosed 76 weeks, study length 76 weeks); 6.2 mg/kg/day (inactive) (mouse, strain B6C3F1, males, oral dosing, site: any site (literature study), lesion: several types, types named in the paper, dosed 76 weeks, study length 76 weeks); 16.7 mg/kg/day (inactive) (mouse, strain B6C3F1, males, oral dosing, site: liver, lesion: hepatoma, dosed 76 weeks, study length 76 weeks); 25.9 mg/kg/day (inactive) (mouse, strain B6C3F1, males, oral dosing, site: lung, lesion: adenoma, dosed 76 weeks, study length 76 weeks). Besides, the carcinogen call (mouse, strain B6AKF1, females, oral dosing, site: liver, lesion: hepatoma, dosed 76 weeks, study length 76 weeks) is “negative (inactive)”; the carcinogen call (mouse, strain B6AKF1, females, oral dosing, site: lung, lesion: adenoma, dosed 76 weeks, study length 76 weeks) is “negative (inactive)”; the carcinogen call (mouse, strain B6AKF1, males, oral dosing, site: any site (literature study), lesion: several types, types named in the paper, dosed 76 weeks, study length 76 weeks) was “negative (inactive)”; the carcinogen call (mouse, strain B6AKF1, males, oral dosing, site: liver, lesion: hepatoma, dosed 76 weeks, study length 76 weeks) was “negative (inactive)”; the carcinogen call (mouse, strain B6AKF1, males, oral dosing, site: lung, lesion: adenoma, dosed 76 weeks, study length 76 weeks) is “negative (inactive)”; the carcinogen call (mouse, strain B6C3F1, females, oral dosing, site: liver, lesion: hepatoma, dosed 76 weeks, study length 76 weeks) is “negative (inactive)”.
For the compound `Cc1cn([C@H]2C[C@H](N=[N+]=[N-])[C@@H](CO)O2)c(=O)[nH]c1=O`, the TD50 is 221 mg/kg/day (mouse, strain B6C3F1, females, by gavage, site: any site (literature study), lesion: several types, types named in the paper, dosed 104 weeks, study length 104 weeks); 139 mg/kg/day (mouse, strain B6C3F1, females, by gavage, site: liver, lesion: hepatocellular adenoma + hepatoblastoma + hepatocellular carcinoma, dosed 104 weeks, study length 104 weeks); 510 mg/kg/day (mouse, strain B6C3F1, females, by gavage, site: lung, lesion: alveolar/bronchiolar adenoma + alveolar/bronchiolar carcinoma, dosed 104 weeks, study length 104 weeks); 209 mg/kg/day (mouse, strain B6C3F1, females, by gavage, site: vagina, lesion: squamous-cell carcinoma + squamous-cell papilloma, dosed 104 weeks, study length 104 weeks); 246 mg/kg/day (mouse, strain B6C3F1, females, by gavage, site: vagina, lesion: squamous-cell carcinoma, dosed 104 weeks, study length 104 weeks); 458 mg/kg/day (mouse, strain B6C3F1, males, by gavage, site: Harderian gland, lesion: adenoma + carcinoma, dosed 104 weeks, study length 104 weeks). Besides, the TD50 runs as follows: (mouse, strain B6C3F1, males, by gavage, site: Harderian gland, lesion: adenoma, dosed 104 weeks, study length 104 weeks) 425 mg/kg/day; (mouse, strain B6C3F1, males, by gavage, site: kidney, lesion: tubule adenoma + tubule carcinoma, dosed 104 weeks, study length 104 weeks) 929 mg/kg/day; (mouse, strain B6C3F1, males, by gavage, site: kidney, lesion: tubule adenoma, dosed 104 weeks, study length 104 weeks) 1250 mg/kg/day; (mouse, strain Charles River CD1, females, by gavage, site: any site (literature study), lesion: several types, types named in the paper, dosed 95 weeks, study length 95 weeks) 131 mg/kg/day; (mouse, strain Charles River CD1, females, by gavage, site: vagina, lesion: several types, types named in the paper, dosed 95 weeks, study length 95 weeks) 508 mg/kg/day; (mouse, strain Charles River CD1, females, by gavage, site: vagina, lesion: squamous-cell carcinoma, dosed 95 weeks, study length 95 weeks) 715 mg/kg/day. Further, the TD50 (rat, strain Charles River CD (Sprague-Dawley), females, by gavage, site: vagina, lesion: squamous-cell carcinoma, dosed 95 weeks, study length 95 weeks) is 11600 mg/kg/day. Also, the carcinogen call runs as follows: (mouse, strain Charles River CD1, males, by gavage, site: any site (literature study), lesion: several types, types named in the paper, dosed 82 weeks, study length 82 weeks) “negative (inactive)”; (rat, strain Charles River CD (Sprague-Dawley), males, by gavage, site: any site (literature study), lesion: several types, types named in the paper, dosed 103 weeks, study length 103 weeks) “negative (inactive)”.
Regarding `CC1=C[C@H]2[C@@]3(O)[C@H](C)[C@@H](O)[C@]4(O)[C@H]([C@@H]3C=C(CO)C[C@]2(O)C1=O)C4(C)C`, the carcinogen call is, setting by setting: (mouse, strain AKR/J, females, i.p., site: lymphoreticular system, lesion: lymphatic leukemia, dosed 104 weeks, study length 104 weeks) “negative (inactive)”; (mouse, strain BALB/c, females, i.p., site: lymphoreticular system, lesion: one or several types, types not named, dosed 104 weeks, study length 104 weeks) “negative (inactive)”; (mouse, strain BALB/c, males, i.p., site: lymphoreticular system, lesion: one or several types, types not named, dosed 104 weeks, study length 104 weeks) “negative (inactive)”; (mouse, strain C3HeB, females, i.p., site: lymphoreticular system, lesion: one or several types, types not named, dosed 104 weeks, study length 104 weeks) “negative (inactive)”; (mouse, strain C3HeB, males, i.p., site: lymphoreticular system, lesion: one or several types, types not named, dosed 104 weeks, study length 104 weeks) “negative (inactive)”; (mouse, strain C57BL, females, i.p., site: lymphoreticular system, lesion: one or several types, types not named, dosed 104 weeks, study length 104 weeks) “negative (inactive)”. The TD50 was 8.26 mg/kg/day (inactive) (mouse, strain AKR/J, males, i.p., site: lymphoreticular system, lesion: lymphatic leukemia, dosed 104 weeks, study length 104 weeks); 92.6 mg/kg/day (mouse, strain SJL/J, females, i.p., site: lymphoreticular system, lesion: reticulum-cell sarcoma, type B, dosed 104 weeks, study length 104 weeks); 2.21 mg/kg/day (mouse, strain SWR, females, i.p., site: lymphoreticular system, lesion: lymphatic leukemia, dosed 104 weeks, study length 104 weeks).
In the case of `FC(F)(F)CCl`, the TD50 reads like this: (rat, strain Alpk:APfSD, females, by gavage, site: uterus, lesion: adenocarcinoma, dosed 52 weeks, study length 125 weeks) 160 mg/kg/day; (rat, strain Alpk:APfSD, males, by gavage, site: testis, lesion: interstitial-cell tumor, dosed 52 weeks, study length 125 weeks) 60 mg/kg/day.
As to `O=C1CCCCC1`, the TD50 came to 3690 mg/kg/day (mouse, strain B6C3F1, females, in drinking water, site: all sites, lesion: malignant lymphoma, dosed 104 weeks, study length 107 weeks); 6300 mg/kg/day (rat, strain Fischer 344, females, in drinking water, site: liver, lesion: neoplastic nodule, dosed 104 weeks, study length 107 weeks); 929 mg/kg/day (rat, strain Fischer 344, males, in drinking water, site: adrenal gland, lesion: cortical adenoma, dosed 104 weeks, study length 107 weeks).
On to `O=[As]O`, for which the carcinogen call is, setting by setting: (mouse, strain Charles River CD1, both sexes, in drinking water, site: any site (literature study), lesion: benign tumor, dosed 104 weeks, study length 104 weeks) “negative (inactive)”; (mouse, strain Charles River CD1, both sexes, in drinking water, site: any site (literature study), lesion: malignant tumor, dosed 104 weeks, study length 104 weeks) “negative (inactive)”; (mouse, strain Charles River CD1, both sexes, in drinking water, site: any site (literature study), lesion: several types, types named in the paper, dosed 104 weeks, study length 104 weeks) “negative (inactive)”; (mouse, strain Charles River CD1, both sexes, in drinking water, site: liver, lesion: several types, types named in the paper, dosed 104 weeks, study length 104 weeks) “negative (inactive)”; (mouse, strain Charles River CD1, both sexes, in drinking water, site: lung, lesion: several types, types named in the paper, dosed 104 weeks, study length 104 weeks) “negative (inactive)”; (rat, strain Long-Evans BLU:(LE), both sexes, in drinking water, site: any site (literature study), lesion: malignant tumor, dosed 167 weeks, study length 167 weeks) “negative (inactive)”. For the same compound, the carcinogen call runs as follows: (rat, strain Long-Evans BLU:(LE), both sexes, in drinking water, site: any site (literature study), lesion: one or several types, types not named, dosed 167 weeks, study length 167 weeks) “negative (inactive)”; (rat, strain Osborne-Mendel, both sexes, in feed, site: any site (literature study), lesion: several types, types named in the paper, dosed 104 weeks, study length 104 weeks) “negative (inactive)”. Further, the TD50 is 10.6 mg/kg/day (inactive) (rat, strain Long-Evans BLU:(LE), both sexes, in drinking water, site: liver, lesion: one or several types, types not named, dosed 167 weeks, study length 167 weeks) and 626 mg/kg/day (inactive) (rat, strain Osborne-Mendel, both sexes, in feed, site: any site (literature study), lesion: malignant tumor, dosed 104 weeks, study length 104 weeks).
